In US12448391B2, “Bicyclic derivatives for treating endoparasites” (Elanco Tiergesundheit AG, priority 2019, dated 2025):

Legend:
D. immitis microfilariae = assay: Dog heart worm microfilariae motility assay; type: cell-based; settings: Dirofilaria immitis, read-out: EC50 (motility inhibition)
H. contortus larvae = assay: H. contortus Larval Development Assay (Hc LDA); settings: Haemonchus contortus, read-out: EC50 (motility inhibition)
Protocol: Ruminant Gastrointestinal (H. contortus Larval Development Assay (Hc LDA)):
H.c. eggs isolated from lamb fecal matter are allowed to hatch overnight. Test compounds are diluted in DMSO and added to a 96-well plate containing appropriate media. H.c. larvae are added to each well and plates are incubated for the desired time(s). Motility is assessed using an LCD camera imaging system. Percent motility inhibition values are generated relative to the average of the DMSO-only wells.

CN(C)c1c(C(=O)NN2CCOc3ccccc32)cnc2c(-c3cc(Cl)cc(Cl)c3)nccc12 [Example 2.1, 8-(3,5-dichlorophenyl)-N-(2,3-dihydro-1,4-benzoxazin-4-yl)-4-(dimethylamino)-1,7-naphthyridine-3-carboxamide]
EC50 (D. immitis microfilariae): < 0.1 µg/mL
EC50 (H. contortus larvae): < 1 µg/mL

CN(C)c1c(C(=O)NN2CCCc3ccccc32)cnc2c(-c3cc(Cl)cc(Cl)c3)nccc12 [Example 2.2, 8-(3,5-dichlorophenyl)-N-(3,4-dihydro-2H-quinolin-1-yl)-4-(dimethylamino)-1,7-naphthyridine-3-carboxamide]
EC50 (D. immitis microfilariae): < 0.1 µg/mL
EC50 (H. contortus larvae): < 1 µg/mL

O=C(NN1CCOc2ccccc21)c1cnc2c(-c3cc(Cl)cc(Cl)c3)nccc2c1N1CCOCC1 [Example 2.3, 8-(3,5-dichlorophenyl)-N-(2,3-dihydro-1,4-benzoxazin-4-yl)-4-morpholino-1,7-naphthyridine-3-carboxamide]
EC50 (D. immitis microfilariae): < 0.1 µg/mL
EC50 (H. contortus larvae): < 1 µg/mL

O=C(NN1CCOc2ccccc21)c1cnc2c(-c3cc(F)cc(F)c3F)nccc2c1N1CCOCC1 [Example 2.4, N-(2,3-dihydro-1,4-benzoxazin-4-yl)-4-morpholino-8-(2,3,5-trifluorophenyl)-1,7-naphthyridine-3-carboxamide]
EC50 (D. immitis microfilariae): < 0.1 µg/mL
EC50 (H. contortus larvae): < 1 µg/mL

CON(C)c1c(C(=O)NN2CCOc3ccccc32)cnc2c(-c3cc(F)cc(F)c3F)nccc12 [Example 2.5, N-(2,3-dihydro-1,4-benzoxazin-4-yl)-4-[methoxy(methyl)amino]-8-(2,3,5-trifluorophenyl)-1,7-naphthyridine-3-carboxamide]
EC50 (D. immitis microfilariae): < 0.1 µg/mL
EC50 (H. contortus larvae): < 1 µg/mL

O=C(NN1CCOc2ccccc21)c1cnc2c(-c3cc(Cl)cc(C(F)(F)F)c3)nccc2c1N1CCOCC1 [Example 2.6, 8-[3-chloro-5-(trifluoromethyl)phenyl]-N-(2,3-dihydro-1,4-benzoxazin-4-yl)-4-morpholino-1,7-naphthyridine-3-carboxamide]
EC50 (D. immitis microfilariae): < 0.1 µg/mL
EC50 (H. contortus larvae): < 1 µg/mL

O=C(NN1CCOc2ccccc21)c1cnc2c(-c3cccc(Cl)c3Cl)nccc2c1N1CCOCC1 [Example 2.7, N-(2,3-dihydro-1,4-benzoxazin-4-yl)-4-morpholino-8-(2,3-dichlorophenyl)-1,7-naphthyridine-3-carboxamide]
EC50 (D. immitis microfilariae): < 0.1 µg/mL

O=C(NN1CCOc2ccccc21)c1cnc2c(-c3cc(Cl)c(F)c(Cl)c3)nccc2c1N1CCOCC1 [Example 2.8, 8-(3,5-dichloro-4-fluoro-phenyl)-N-(2,3-dihydro-1,4-benzoxazin-4-yl)-4-morpholino-1,7-naphthyridine-3-carboxamide]
EC50 (D. immitis microfilariae): < 0.1 µg/mL
EC50 (H. contortus larvae): < 1 µg/mL

CN(C)c1c(C(=O)NN2CCOc3ccccc32)cnc2c(-c3cc(Cl)cc(Cl)c3)ccnc12 [Example 3.1, 8-(3,5-dichlorophenyl)-N-(2,3-dihydro-1,4-benzoxazin-4-yl)-4-(dimethylamino)-1,5-naphthyridine-3-carboxamide]
EC50 (D. immitis microfilariae): < 0.1 µg/mL
EC50 (H. contortus larvae): < 1 µg/mL

CN(C)c1c(C(=O)NN2CCOc3ccccc32)cnc2c(-c3cccc(Cl)c3Cl)ccnc12 [Example 3.2, 8-(2,3-dichlorophenyl)-N-(2,3-dihydro-1,4-benzoxazin-4-yl)-4-(dimethylamino)-1,5-naphthyridine-3-carboxamide]
EC50 (D. immitis microfilariae): < 0.1 µg/mL
EC50 (H. contortus larvae): < 1 µg/mL

O=C(NN1CCOc2ccccc21)c1cnc2c(-c3cc(Cl)cc(Cl)c3)ccnc2c1N1CCOCC1 [Example 3.3, 8-(3,5-dichlorophenyl)-N-(2,3-dihydro-1,4-benzoxazin-4-yl)-4-morpholino-1,5-naphthyridine-3-carboxamide]
EC50 (D. immitis microfilariae): < 0.1 µg/mL
EC50 (H. contortus larvae): < 1 µg/mL

O=C(NN1CCOc2ccccc21)c1cnc2c(-c3cc(F)cc(F)c3F)ccnc2c1N1CCOCC1 [Example 3.4, N-(2,3-dihydro-1,4-benzoxazin-4-yl)-4-morpholino-8-(2,3,5-trifluorophenyl)-1,5-naphthyridine-3-carboxamide]
EC50 (D. immitis microfilariae): < 0.1 µg/mL
EC50 (H. contortus larvae): < 1 µg/mL
